The record followed here is patent publication US9796704B2, “Substituted quinazolines as receptor-type kinase inhibitors” (Symphony Evolution, Inc., priority 2002, dated 2017).

A value given as a limit tells only on which side of the number the result lay.

One assay concerns the target EphB4 (Homo sapiens (Human), UniProt P54760). The assay is described as follows: EphB4 kinase inhibition, 33P phosphoryl transfer assay (radiometric). It counts as biochemical. On the procedure: Phosphorylated substrate products are quantified by scintillation spectrometry.
Kinase activity and compound inhibition are investigated using one or more of the three assay formats described below. The ATP concentrations are selected near its Michaelis-Menten constant (KM) for each individual kinase. Dose-response experiments are performed at ten different inhibitor concentrations in a 384-well plate format. […] These parameters are obtained by nonlinear regression algorithm built into ActivityBase software (available from ID Business Solutions Ltd., of Guildford, Surrey, UK). ^33P Phosphoryl Transfer Assay (Radiometric)
Greiner 384-well white clear bottom high binding plates (available from Greiner Bio-One, Inc., of Longwood, Fla.) are coated with 2 μg/well of protein or peptide substrate in a 50 μL volume overnight at ambient temperature. […] The coating solution is aspirated and the plates are washed once with 50 μL of assay buffer and padded dry. Subsequently compounds and enzymes are mixed with γ ^33P-ATP (3.3 μCi/nmol) in a total volume of 20 uL in suitable assay buffers (see Table 2). For example the final EphB4 reaction solution contains 20 mM TrisHCl, pH 7.5, 10 mM MgCl2, 0.01% Triton X-100, 0.1 mM NaVO3, 5 nM EphB4 enzyme and 5 μM ATP. […] The plates are subsequently washed 6-12 times with PBST or TBS buffer.

For the next assay, the target named is EGFR (Homo sapiens (Human), UniProt P00533). Nature of the assay: EGFR kinase inhibition, luciferase-coupled chemiluminescent assay (LCCA). As to conditions: read-out: EGFR IC50.
Chain of EGFR (P00533 672-1210): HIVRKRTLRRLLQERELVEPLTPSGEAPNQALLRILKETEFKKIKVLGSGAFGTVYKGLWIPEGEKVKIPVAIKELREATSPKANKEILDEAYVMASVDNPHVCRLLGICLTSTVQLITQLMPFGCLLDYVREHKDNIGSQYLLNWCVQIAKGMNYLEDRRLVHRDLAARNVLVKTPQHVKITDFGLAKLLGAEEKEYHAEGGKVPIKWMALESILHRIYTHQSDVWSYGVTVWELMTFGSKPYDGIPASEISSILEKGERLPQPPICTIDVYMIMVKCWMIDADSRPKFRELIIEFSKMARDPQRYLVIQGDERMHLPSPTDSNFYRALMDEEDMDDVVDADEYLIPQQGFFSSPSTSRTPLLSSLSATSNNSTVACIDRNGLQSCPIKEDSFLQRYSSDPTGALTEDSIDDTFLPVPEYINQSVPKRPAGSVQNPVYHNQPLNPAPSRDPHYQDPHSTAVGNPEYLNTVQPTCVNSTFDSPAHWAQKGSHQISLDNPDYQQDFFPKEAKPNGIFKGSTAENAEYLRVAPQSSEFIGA

Chain of EphB4 (P54760 605-890): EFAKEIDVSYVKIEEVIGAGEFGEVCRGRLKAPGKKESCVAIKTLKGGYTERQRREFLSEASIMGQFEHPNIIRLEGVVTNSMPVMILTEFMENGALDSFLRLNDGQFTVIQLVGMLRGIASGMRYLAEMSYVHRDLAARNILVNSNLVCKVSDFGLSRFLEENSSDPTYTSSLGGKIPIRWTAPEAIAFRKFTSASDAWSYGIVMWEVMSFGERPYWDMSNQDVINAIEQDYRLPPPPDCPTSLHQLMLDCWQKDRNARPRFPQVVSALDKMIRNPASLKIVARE
Description for EGFR: Kinase activity and compound inhibition are investigated using one or more of the three assay formats described below. The ATP concentrations are selected near its Michaelis-Menten constant (KM) for each individual kinase. Dose-response experiments are performed at ten different inhibitor concentrations in a 384-well plate format. […] Typically H is close to unity.
In the LCCA assays, kinase activity is measured by the ATP consumption that is accurately measured by luciferase-coupled chemiluminescence. Greiner 384-well white clear bottom medium binding plates are used for LCCA. Briefly the kinase reaction is initiated by mixing compounds, ATP and kinases in a 20 μL volume. At the end of the kinase reaction, a 20 μL luciferase-luciferin mix is added and the chemiluminescent signal is read on a Wallac Victor^2 reader.

With `COc1cc2c(Nc3ccc(Br)c(Cl)c3)ncnc2cc1O[C@H]1CO[C@@H]2C3OC(C)(C)O[C@H]3O[C@H]12` (stereo partly drawn) [Example 80, 3,6-anhydro-5-O-[4-[(4-bromo-3-chlorophenyl)amino]-6-(methyloxy)quinazolin-7-yl]-1,2-O-(1-methylethylidene)-beta-L-xylo-hexofuranose], the IC50 against EphB4 and at EGFR was below 50 nM throughout. On to `COc1cc2c(Nc3ccc(F)c(F)c3F)ncnc2cc1O[C@@H]1CO[C@@H]2[C@H]1OC[C@H]2F` [Example 84, 1,4:3,6-dianhydro-2-deoxy-2-fluoro-5-O-{6-(methyloxy)-4-[(2,3,4-trifluorophenyl)amino]quinazolin-7-yl}-D-iditol], for which the IC50 against EphB4 and at EGFR was below 50 nM each time. Turning to `COc1cc2c(Nc3cccc(F)c3F)ncnc2cc1O[C@@H]1CO[C@@H]2[C@H]1OC[C@H]2F` [Example 92, 1,4:3,6-dianhydro-2-deoxy-5-O-[4-[(2,3-difluorophenyl)amino]-6-(methyloxy)quinazolin-7-yl]-2-fluoro-D-iditol], the half-maximal inhibitory concentration (IC50) on EphB4 and on EGFR was below 50 nM throughout. Regarding `COc1cc2c(Nc3ccc(Br)c(Cl)c3Cl)ncnc2cc1O[C@@H]1CO[C@@H]2[C@H]1OC[C@H]2F` [Example 103, 1,4:3,6-dianhydro-5-O-[4-[(4-bromo-2,3-dichlorophenyl)amino]-6-(methyloxy)quinazolin-7-yl]-2-deoxy-2-fluoro-D-iditol], the IC50 on EphB4 and on EGFR was below 50 nM in each case. As to `COc1cc2c(Nc3cc(Cl)c(Cl)cc3F)ncnc2cc1O[C@@H]1CO[C@@H]2[C@H]1OC[C@H]2F` [Example 105, 1,4:3,6-dianhydro-2-deoxy-5-O-[4-[(4,5-dichloro-2-fluorophenyl)amino]-6-(methyloxy)quinazolin-7-yl]-2-fluoro-D-iditol], the IC50 at EphB4 and on EGFR was below 50 nM throughout. In the case of `COc1cc2c(Nc3cccc(Cl)c3)ncnc2cc1O[C@@H]1CO[C@@H]2[C@H]1OC[C@H]2F` [Example 114, 1,4:3,6-dianhydro-5-O-[4-[(3-chlorophenyl)amino]-6-(methyloxy)quinazolin-7-yl]-2-deoxy-2-fluoro-D-iditol], the IC50 at EphB4 and at EGFR was below 50 nM throughout. For `COc1cc2c(Nc3ccc(Cl)cc3Cl)ncnc2cc1O[C@@H]1CO[C@@H]2[C@H]1OC[C@H]2F` [Example 117, 1,4:3,6-dianhydro-2-deoxy-5-O-[4-[(2,4-dichlorophenyl)amino]-6-(methyloxy)quinazolin-7-yl]-2-fluoro-D-iditol], the IC50 against EphB4 and on EGFR was below 50 nM throughout. Regarding `COc1cc2c(Nc3cccc(Br)c3)ncnc2cc1O[C@@H]1CO[C@@H]2[C@H]1OC[C@H]2F` [Example 129, 1,4:3,6-dianhydro-5-O-[4-[(3-bromophenyl)amino]-6-(methyloxy)quinazolin-7-yl]-2-deoxy-2-fluoro-D-iditol], the IC50 against EphB4 and at EGFR was below 50 nM each time. Regarding `COc1cc(OC)c(Nc2ncnc3cc(O[C@@H]4CO[C@@H]5[C@H]4OC[C@H]5F)c(OC)cc23)cc1Cl` [Example 135, 1,4:3,6-dianhydro-5-O-[4-{[5-chloro-2,4-bis(methyloxy)phenyl]amino}-6-(methyloxy)quinazolin-7-yl]-2-deoxy-2-fluoro-D-iditol], the IC50 at EphB4 and at EGFR was below 50 nM each time.

Take `COc1cc2c(Nc3ccc(F)c(Cl)c3F)ncnc2cc1O[C@@H]1CO[C@@H]2[C@H]1OC[C@H]2F` [Example 137, 1,4:3,6-dianhydro-5-O-[4-[(3-chloro-2,4-difluorophenyl)amino]-6-(methyloxy)quinazolin-7-yl]-2-deoxy-2-fluoro-D-iditol]: the IC50 against EphB4 and on EGFR was below 50 nM throughout. Consider `COc1cc2c(Nc3ccc(Cl)c(Cl)c3)ncnc2cc1OCc1nc(CN(C)C)no1` [Example 139, N-(3,4-dichlorophenyl)-7-[({3-[(dimethylamino)methyl]-1,2,4-oxadiazol-5-yl}methyl)oxy]-6-(methyloxy)quinazolin-4-amine], for which the IC50 against EphB4 was 50 to 1000 nM; on EGFR it was below 50 nM. Consider `COc1cc2c(Nc3ccc(Cl)c(Cl)c3)ncnc2cc1OCc1nc2ccccc2s1` [Example 162, 7-[(1,3-benzothiazol-2-ylmethyl)oxy]-N-(3,4-dichlorophenyl)-6-(methyloxy)quinazolin-4-amine], for which the half-maximal inhibitory concentration (IC50) at EGFR is below 50 nM. As for `COc1cc2c(Nc3ccc(Cl)c(Cl)c3)ncnc2cc1OCc1cnn(-c2ccccc2)c1` [Example 165, N-(3,4-dichlorophenyl)-6-(methyloxy)-7-{[(1-phenyl-1H-pyrazol-4-yl)methyl]oxy}quinazolin-4-amine], on EGFR, the IC50 is below 50 nM.

Turning to `COc1cc2c(Nc3ccc(Cl)c(Cl)c3)ncnc2cc1OCc1nc(-c2ccc(Cl)cc2)no1` [Example 168, 7-({[3-(4-chlorophenyl)-1,2,4-oxadiazol-5-yl]methyl}oxy)-N-(3,4-dichlorophenyl)-6-(methyloxy)quinazolin-4-amine], the IC50 on EGFR is below 50 nM. Take `COc1cc2c(Nc3ccc(Cl)c(Cl)c3)ncnc2cc1OCc1c(OC)ccc2cc(Br)ccc12` [Example 169, 7-({[6-bromo-2-(methyloxy)naphthalen-1-yl]methyl}oxy)-N-(3,4-dichlorophenyl)-6-(methyloxy)quinazolin-4-amine]: the IC50 at EGFR was below 50 nM. On to `COc1cc2c(Nc3ccc(Cl)c(Cl)c3)ncnc2cc1OCc1ccc(Cl)nc1` [Example 171, 7-{[(6-chloropyridin-3-yl)methyl]oxy}-N-(3,4-dichlorophenyl)-6-(methyloxy)quinazolin-4-amine], for which, on EGFR, the IC50 was below 50 nM. On to `COc1cc2c(Nc3ccc(Cl)c(Cl)c3)ncnc2cc1OCc1csc(C)n1` [Example 173, N-(3,4-dichlorophenyl)-6-(methyloxy)-7-{[(2-methyl-1,3-thiazol-4-yl)methyl]oxy}quinazolin-4-amine], for which the IC50 at EGFR was below 50 nM. For `COc1cc2c(Nc3ccc(Cl)c(Cl)c3)ncnc2cc1OCc1cc(Cl)cc2c1OCOC2` [Example 174, 7-{[(6-chloro-4H-1,3-benzodioxin-8-yl)methyl]oxy}-N-(3,4-dichlorophenyl)-6-(methyloxy)quinazolin-4-amine], on EGFR, the IC50 is below 50 nM.

Turning to `COc1cc2c(Nc3ccc(Cl)c(Cl)c3)ncnc2cc1OCc1cc(-c2ccccc2)no1` [Example 177, N-(3,4-dichlorophenyl)-6-(methyloxy)-7-{[(3-phenylisoxazol-5-yl)methyl]oxy}quinazolin-4-amine], the concentration for half-maximal inhibition (IC50) at EGFR was below 50 nM. For the compound `COc1cc2c(Nc3ccc(Cl)c(Cl)c3)ncnc2cc1OCc1c(C)cc(C)cc1C` [Example 178, N-(3,4-dichlorophenyl)-6-(methyloxy)-7-{[(2,4,6-trimethylphenyl)methyl]oxy}quinazolin-4-amine], the IC50 on EGFR was below 50 nM. Regarding `COc1ccc(-c2cc(COc3cc4ncnc(Nc5ccc(Cl)c(Cl)c5)c4cc3OC)on2)cc1` [Example 180, N-(3,4-dichlorophenyl)-6-(methyloxy)-7-[({3-[4-(methyloxy)phenyl]isoxazol-5-yl}methyl)oxy]quinazolin-4-amine], the IC50 at EGFR is below 50 nM. Same read-out and setting: to `COc1cc2c(Nc3ccc(Cl)c(Cl)c3)ncnc2cc1OCc1c(C(F)(F)F)nn(C)c1Oc1ccc(Cl)cc1Cl` [Example 181, N-(3,4-dichlorophenyl)-7-({[5-[(2,4-dichlorophenyl)oxy]-1-methyl-3-(trifluoromethyl)-1H-pyrazol-4-yl]methyl}oxy)-6-(methyloxy)quinazolin-4-amine] belongs below 50 nM; to `COc1cc2c(Nc3ccc(Cl)c(Cl)c3)ncnc2cc1OCc1noc(COCc2ccccc2)n1` [Example 211, N-(3,4-dichlorophenyl)-6-(methyloxy)-7-{[(5-{[(phenylmethyl)oxy]methyl}-1,2,4-oxadiazol-3-yl)methyl]oxy}quinazolin-4-amine], below 50 nM; to `CCN1CCC[C@H]1c1noc(COc2cc3ncnc(Nc4ccc(Cl)c(Cl)c4)c3cc2OC)n1` [Example 255, N-(3,4-dichlorophenyl)-7-[({3-[(2S)-1-ethylpyrrolidin-2-yl]-1,2,4-oxadiazol-5-yl}methyl)oxy]-6-(methyloxy)quinazolin-4-amine], below 50 nM. On the same count and under the same terms, in the case of `CCN1CCC[C@H]1c1nc(COc2cc3ncnc(Nc4ccc(Cl)c(Cl)c4)c3cc2OC)cs1` [Example 256, N-(3,4-dichlorophenyl)-7-[({2-[(2S)-1-ethylpyrrolidin-2-yl]-1,3-thiazol-4-yl}methyl)oxy]-6-(methyloxy)quinazolin-4-amine] it was below 50 nM; in that of `C=CCCCCN1CCOC(COc2cc3ncnc(Nc4ccc(Cl)c(Cl)c4)c3cc2OC)C1` (centres unmarked) [Example 274, N-(3,4-dichlorophenyl)-7-{[(4-hex-5-en-1-ylmorpholin-2-yl)methyl]oxy}-6-(methyloxy)quinazolin-4-amine], below 50 nM; in that of `COC(=O)CCN1CCOC(COc2cc3ncnc(Nc4ccc(Cl)c(Cl)c4)c3cc2OC)C1` (centres unmarked) [Example 276, methyl 3-[2-({[4-[(3,4-dichlorophenyl)amino]-6-(methyloxy)quinazolin-7-yl]oxy}methyl)morpholin-4-yl]propanoate], below 50 nM.

The IC50 is the concentration at which inhibition is half-maximal.
